Source: patent US11098055B2, “Ester ACC inhibitors and uses thereof” (Gilead Apollo, LLC, priority 2015, dated 2021)
In brackets after ≈: the same amount, converted by molar mass.

How the values were obtained:
[1] = tested on: C. krusei ATCC 6258; assay: Anti-Fungal (Candida) Activity Assay, broth microtiter MIC; format: cell-based, Candida krusei; conditions: Pichia kudriavzevii, ATCC6258, 48 h, Table 3b (additional results); 3 replicates; MIC read at 48 h
How it was run: (§1)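 Broth microdilution per CLSI M27-A3 in RPMI 1640 + MOPS, at a final inoculum of 2.5×10^3 CFU/mL. Compound DMSO stocks were diluted in water to a 128 μg/mL working solution. MIC was read visually against the growth control at 48 h.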

[2] = tested on: C. albicans ATCC 90028; assay: as above; format: cell-based; conditions: ATCC90028, 48 h, Table 3b (additional results), 3 replicates, MIC read at 48 h
How it was run: as §1

[3] = tested on: C. parapsilosis ATCC 22019; assay: as above; format: cell-based; conditions: Lodderomyces parapsilosis, ATCC22019, 48 h, Table 3b (additional results); 3 replicates; MIC read at 48 h
How it was run: as §1

[4] = molecular target: fACC2 (UniProt Q00955); assay: In vitro ACC2 inhibition assay (ADP-Glo), fungal ACC2; format: biochemical; conditions: Table 2b (additional results)
How it was run: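 ADP-Glo luminescent ADP detection with 5 nM ACC2, 20 μM ATP, 20 μM acetyl-CoA, 12 mM NaHCO3, 2 mM DTT, 5% DMSO; compound (30 μM-0.00051 μM, 11 points) preincubated 15 min, reaction 60 min at room temperature. Percent inhibition against DMSO and positive controls; IC50 by four-parameter nonlinear fit.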

Chain of fACC2 (Q00955 whole entry): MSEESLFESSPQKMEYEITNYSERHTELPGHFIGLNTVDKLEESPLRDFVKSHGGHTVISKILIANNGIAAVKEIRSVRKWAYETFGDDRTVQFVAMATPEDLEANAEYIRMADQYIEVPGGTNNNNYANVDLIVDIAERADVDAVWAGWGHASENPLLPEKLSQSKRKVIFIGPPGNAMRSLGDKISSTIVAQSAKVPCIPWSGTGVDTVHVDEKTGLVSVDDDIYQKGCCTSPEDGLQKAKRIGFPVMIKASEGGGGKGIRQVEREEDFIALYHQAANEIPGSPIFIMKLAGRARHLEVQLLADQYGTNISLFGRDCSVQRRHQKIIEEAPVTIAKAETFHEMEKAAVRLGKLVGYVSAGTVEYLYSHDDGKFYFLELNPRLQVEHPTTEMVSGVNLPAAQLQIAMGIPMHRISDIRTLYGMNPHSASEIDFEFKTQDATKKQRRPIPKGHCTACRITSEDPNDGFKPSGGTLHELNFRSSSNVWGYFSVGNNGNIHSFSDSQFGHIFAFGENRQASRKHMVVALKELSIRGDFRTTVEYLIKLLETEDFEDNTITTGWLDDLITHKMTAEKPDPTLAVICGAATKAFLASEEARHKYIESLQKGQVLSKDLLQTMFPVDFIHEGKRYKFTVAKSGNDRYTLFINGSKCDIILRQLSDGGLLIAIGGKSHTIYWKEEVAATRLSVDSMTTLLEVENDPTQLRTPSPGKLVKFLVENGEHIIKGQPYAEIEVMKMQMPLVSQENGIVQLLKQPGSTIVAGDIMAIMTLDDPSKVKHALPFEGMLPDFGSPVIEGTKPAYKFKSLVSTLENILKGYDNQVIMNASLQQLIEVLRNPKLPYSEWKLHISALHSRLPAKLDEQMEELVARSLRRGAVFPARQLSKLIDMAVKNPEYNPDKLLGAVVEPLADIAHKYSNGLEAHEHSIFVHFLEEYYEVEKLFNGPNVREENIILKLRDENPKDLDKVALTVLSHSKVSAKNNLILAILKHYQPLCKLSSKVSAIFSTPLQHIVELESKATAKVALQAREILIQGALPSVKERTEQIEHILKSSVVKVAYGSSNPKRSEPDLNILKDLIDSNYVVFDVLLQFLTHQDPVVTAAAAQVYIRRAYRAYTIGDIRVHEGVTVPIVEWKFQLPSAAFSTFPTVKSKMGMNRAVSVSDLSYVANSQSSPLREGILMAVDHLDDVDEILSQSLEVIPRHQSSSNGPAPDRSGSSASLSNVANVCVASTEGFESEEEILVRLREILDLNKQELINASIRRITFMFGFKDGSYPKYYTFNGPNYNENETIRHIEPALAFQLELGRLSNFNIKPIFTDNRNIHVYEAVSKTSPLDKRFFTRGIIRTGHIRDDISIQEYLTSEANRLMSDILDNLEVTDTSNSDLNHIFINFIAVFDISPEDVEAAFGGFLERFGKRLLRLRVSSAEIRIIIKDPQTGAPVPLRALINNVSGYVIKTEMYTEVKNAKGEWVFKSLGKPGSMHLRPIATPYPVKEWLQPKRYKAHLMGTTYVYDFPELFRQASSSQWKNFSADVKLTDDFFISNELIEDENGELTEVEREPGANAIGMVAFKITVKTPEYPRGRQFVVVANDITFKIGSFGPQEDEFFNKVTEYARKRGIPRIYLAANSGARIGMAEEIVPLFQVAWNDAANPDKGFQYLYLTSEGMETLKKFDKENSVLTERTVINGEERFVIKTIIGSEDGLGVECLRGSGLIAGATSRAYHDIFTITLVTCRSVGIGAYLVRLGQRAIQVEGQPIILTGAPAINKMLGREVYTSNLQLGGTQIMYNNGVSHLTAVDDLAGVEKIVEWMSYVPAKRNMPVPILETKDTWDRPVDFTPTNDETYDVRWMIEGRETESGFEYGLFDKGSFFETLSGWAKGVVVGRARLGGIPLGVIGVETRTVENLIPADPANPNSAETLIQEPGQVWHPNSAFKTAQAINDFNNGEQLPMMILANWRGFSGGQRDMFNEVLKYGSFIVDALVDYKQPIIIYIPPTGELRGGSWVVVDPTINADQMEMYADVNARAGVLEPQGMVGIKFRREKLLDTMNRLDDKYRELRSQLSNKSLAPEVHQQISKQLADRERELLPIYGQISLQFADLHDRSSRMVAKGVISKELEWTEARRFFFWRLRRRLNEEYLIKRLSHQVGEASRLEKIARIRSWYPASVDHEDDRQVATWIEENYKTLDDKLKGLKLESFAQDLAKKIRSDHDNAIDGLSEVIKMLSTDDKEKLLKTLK

Compound | MIC [1] [µg/mL] | MIC [2] [µg/mL] | MIC [3] [µg/mL] | IC50 [4] [nM]
CCOC(=O)c1sc2c(c1C)c(=O)n([C@H](C)C(=O)NC(C)C)c(=O)n2C[C@H](O)c1cc(F)ccc1OC [Compound I-43, ethyl 1-((R)-2-(5-fluoro-2-methoxyphenyl)-2-hydroxyethyl)-3-((R)-1-(isopropylamino)-1-oxopropan-2-yl)-5-methyl-2,4-dioxo-1,2,3,4-tetrahydrothieno[2,3-d]pyrimidine-6-carboxylate] | 2.1 to 4 (≈ 3.92 to 7.47 µM) | 2.1 to 4 (≈ 3.92 to 7.47 µM) | 2.1 to 4 (≈ 3.92 to 7.47 µM) | 0.3 to 3
CCOC(=O)c1sc2c(c1C)c(=O)n([C@H](C)C(N)=O)c(=O)n2C[C@H](OCCC#N)c1cc(F)ccc1OC [Compound I-26, ethyl 3-((R)-1-amino-1-oxopropan-2-yl)-1-((R)-2-(2-cyanoethoxy)-2-(5-fluoro-2-methoxyphenyl)ethyl)-5-methyl-2,4-dioxo-1,2,3,4-tetrahydrothieno[2,3-d]pyrimidine-6-carboxylate] | 0.25 to 1 (≈ 0.457 to 1.83 µM) | 2.1 to 4 (≈ 3.84 to 7.32 µM) | > 4.1 | 0.3 to 3
CCNC(=O)C(C)(C)n1c(=O)c2c(C)c(C(=O)OCC)sc2n(C[C@H](OCCC#N)c2cc(F)ccc2OC)c1=O [Compound I-29, (R)-ethyl 1-(2-(2-cyanoethoxy)-2-(5-fluoro-2-methoxy-phenyl)ethyl)-3-(1-(ethylamino)-2-methyl-1-oxopropan-2-yl)-5-methyl-2,4-dioxo-1,2,3,4-tetrahydrothieno[2,3-d]pyrimidine-6-carboxylate] | 2.1 to 4 (≈ 3.57 to 6.8 µM) | 1.1 to 2 (≈ 1.87 to 3.4 µM) | 2.1 to 4 (≈ 3.57 to 6.8 µM) | 0.3 to 3
CCOC(=O)c1sc2c(c1C)c(=O)n(C(C)(C)C(=O)NC(C)C)c(=O)n2C[C@H](OC[C@@H](C)C#N)c1cc(F)ccc1OC [Compound I-35, ethyl 1-((R)-2-((S)-2-cyanopropoxy)-2-(5-fluoro-2-methoxyphenyl)ethyl)-3-(1-(isopropylamino)-2-methyl-1-oxopropan-2-yl)-5-methyl-2,4-dioxo-1,2,3,4-tetrahydrothieno[2,3-d]pyrimidine-6-carboxylate] | 2.1 to 4 (≈ 3.41 to 6.49 µM) | 0.25 to 1 (≈ 0.405 to 1.62 µM) | 0.25 to 1 (≈ 0.405 to 1.62 µM) | 0.3 to 3
